In US20080279924A1, “HLA class I A2 tumor associated antigen peptides and vaccine compositions” (priority 1999, published 2008):

Tests used:
[1] = tested on: PBMC from healthy donors; assay type: cell-based, human
[2] = tested on: HLA-DR molecules; settings: cited from earlier work

QYIKANSKFIGITE [Epitope 553.01]
antigen concentration at which the 10,000 cpm proliferation level was reached [1]: about 10,000 ng/ml
donors with primary T cell responses [1]: 2 out of 3
number of DR molecules bound of DR molecules tested [2]: seven of 16

aKXVAAWTLKAAa-NH2 [PADRE]
donors with primary T cell responses [1]: all three donors
